The supplement of paper PMC10307832

Legend:
Test in all cases: relative viability (nuclei count vs DMSO), 5 days (fraction); higher = more cells survive
Tipifarnib + Trametinib = compound: Cn1cncc1[C@@](N)(c1ccc(Cl)cc1)c1ccc2c(c1)c(-c1cccc(Cl)c1)cc(=O)n2C [Tipifarnib] + CC(=O)Nc1cccc(-n2c(=O)n(C3CC3)c(=O)c3c(Nc4ccc(I)cc4F)n(C)c(=O)c(C)c32)c1 [Trametinib] (partner 0.02 µM)
Summary of the method: (§1)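 Nuclei were stained with Hoechst during a one-step fixation (final 0.05% Triton X-100, 1% formaldehyde, 1 ug/ml Hoechst) carried out 5 days after dosing, then counted on 4× images. The cells, lung cancer lines in 1536-well plates, had been dosed by pin tool the day after seeding with one drug alone or a fixed anchor-drug dose plus five library-drug doses (not always all listed) in √10 steps. Relative viability is the nuclei count in treated wells divided by that in vehicle wells, and each value is the median of duplicate plates.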

Tipifarnib + Bortezomib = compound: Cn1cncc1[C@@](N)(c1ccc(Cl)cc1)c1ccc2c(c1)c(-c1cccc(Cl)c1)cc(=O)n2C [Tipifarnib] + CC(C)C[C@H](NC(=O)[C@H](Cc1ccccc1)NC(=O)c1cnccn1)B(O)O [Bortezomib] (partner 0.002 µM)
Summary of the method: as §1

Tipifarnib + Pictilisib = compound: Cn1cncc1[C@@](N)(c1ccc(Cl)cc1)c1ccc2c(c1)c(-c1cccc(Cl)c1)cc(=O)n2C [Tipifarnib] + CS(=O)(=O)N1CCN(Cc2cc3nc(-c4cccc5[nH]ncc45)nc(N4CCOCC4)c3s2)CC1 [Pictilisib] (partner 1 µM)
Summary of the method: as §1

Tipifarnib + Olaparib = compound: Cn1cncc1[C@@](N)(c1ccc(Cl)cc1)c1ccc2c(c1)c(-c1cccc(Cl)c1)cc(=O)n2C [Tipifarnib] + O=C(c1cc(Cc2n[nH]c(=O)c3ccccc23)ccc1F)N1CCN(C(=O)C2CC2)CC1 [Olaparib] (partner 8 µM)
Summary of the method: as §1

Cell Line | relative viability (Tipifarnib + Trametinib; first compound 0.01 µM) | relative viability (Tipifarnib + Trametinib; first compound 0.03162 µM) | relative viability (Tipifarnib + Trametinib; first compound 0.1 µM) | relative viability (Tipifarnib + Trametinib; first compound 0.3162 µM) | relative viability (Tipifarnib + Trametinib; first compound 1 µM) | relative viability (Tipifarnib + Bortezomib; first compound 0.01 µM) | relative viability (Tipifarnib + Bortezomib; first compound 0.03162 µM) | relative viability (Tipifarnib + Bortezomib; first compound 0.1 µM) | relative viability (Tipifarnib + Bortezomib; first compound 0.3162 µM) | relative viability (Tipifarnib + Bortezomib; first compound 1 µM) | relative viability (Tipifarnib + Pictilisib; first compound 0.01 µM) | relative viability (Tipifarnib + Pictilisib; first compound 0.03162 µM) | relative viability (Tipifarnib + Pictilisib; first compound 0.1 µM) | relative viability (Tipifarnib + Pictilisib; first compound 0.3162 µM) | relative viability (Tipifarnib + Pictilisib; first compound 1 µM) | relative viability (Tipifarnib + Olaparib; first compound 0.01 µM) | relative viability (Tipifarnib + Olaparib; first compound 0.03162 µM) | relative viability (Tipifarnib + Olaparib; first compound 0.1 µM) | relative viability (Tipifarnib + Olaparib; first compound 0.3162 µM) | relative viability (Tipifarnib + Olaparib; first compound 1 µM)
LCLC-97TM1 | 0.202 | 0.209 | 0.171 | 0.17 | 0.157 | 0.317 | 0.582 | 0.404 | 0.33 | 0.117 | 0.179 | 0.147 | 0.12 | 0.193 | 0.108 | 0.447 | 0.245 | 0.315 | 0.229 | 0.239
LCLC-103H | 0.649 | 0.674 | 0.646 | 0.642 | 0.667 | 1.06 | 0.79 | 0.973 | 0.832 | 0.581 | 0.566 | 0.606 | 0.617 | 0.491 | 0.469 | 0.81 | 0.759 | 0.785 | 0.708 | 0.739
LOU-NH91 | 0.825 | 0.747 | 0.73 | 0.69 | 0.723 | 0.436 | 0.42 | 0.558 | 0.534 | 0.457 | 0.517 | 0.446 | 0.499 | 0.501 | 0.388 | 0.929 | 0.904 | 0.857 | 0.802 | 0.824
LU99A | 0.394 | 0.431 | 0.312 | 0.25 | 0.209 | 0.803 | 0.712 | 0.477 | 0.53 | 0.314 | 0.29 | 0.264 | 0.219 | 0.208 | 0.193 | 0.293 | 0.23 | 0.226 | 0.245 | 0.202
LXF-289 | 0.71 | 0.684 | 0.695 | 0.557 | 0.64 | 0.978 | 0.889 | 0.948 | 0.874 | 0.706 | 0.86 | 0.793 | 0.735 | 0.699 | 0.464 | 1.12 | 1.02 | 0.989 | 0.805 | 0.91
NCI-H23 | 0.368 | 0.493 | 0.398 | 0.292 | 0.204 | 1.27 | 0.751 | 0.636 | 0.36 | 0.25 | 0.469 | 0.448 | 0.312 | 0.268 | 0.232 | 0.318 | 0.241 | 0.33 | 0.266 | 0.21
NCI-H322M | 0.492 | 0.565 | 0.519 | 0.542 | 0.548 | 1.27 | 1.32 | 1.18 | 1.05 | 0.947 | 0.533 | 0.543 | 0.47 | 0.464 | 0.481 | 0.825 | 0.772 | 0.884 | 0.774 | 0.91
NCI-H441 | 0.429 | 0.319 | 0.372 | 0.228 | 0.225 | 0.685 | 0.2 | 0.432 | 0.207 | 0.185 | 0.489 | 0.461 | 0.463 | 0.328 | 0.212 | 0.651 | 0.39 | 0.523 | 0.306 | 0.277
NCI-H460 | 0.142 | 0.0861 | 0.0817 | 0.0529 | 0.0386 | 0.957 | 0.605 | 0.369 | 0.248 | 0.036 | 0.42 | 0.396 | 0.379 | 0.275 | 0.126 | 0.462 | 0.369 | 0.219 | 0.207 | 0.208
NCI-H520 | 0.87 | 0.642 | 0.7 | 0.521 | 0.315 | 0.506 | 0.203 | 0.636 | 0.246 | 0.173 | 0.283 | 0.227 | 0.243 | 0.275 | 0.166 | 0.351 | 0.348 | 0.318 | 0.293 | 0.273
NCI-H596 | 0.759 | 1 | 0.593 | 0.53 | 0.527 | 1.05 | 1.12 | 1.17 | 0.913 | 0.699 | 0.392 | 0.365 | 0.354 | 0.373 | 0.312 | 0.667 | 0.693 | 0.65 | 0.574 | 0.593
NCI-H647 | 0.475 | 0.419 | 0.418 | 0.254 | 0.225 | 0.911 | 0.59 | 0.678 | 0.589 | 0.273 | 0.403 | 0.416 | 0.364 | 0.406 | 0.167 | 0.566 | 0.472 | 0.39 | 0.142 | 0.142
NCI-H650 | 1.09 | 0.911 | 0.841 | 0.696 | 0.549 | 0.781 | 0.36 | 0.697 | 0.539 | 0.346 | 1.14 | 0.746 | 0.647 | 0.557 | 0.351 | 0.543 | 0.394 | 0.376 | 0.334 | 0.303
NCI-H661 | 0.627 | 0.487 | 0.482 | 0.396 | 0.456 | 0.967 | 0.818 | 0.569 | 0.598 | 0.744 | 0.441 | 0.535 | 0.419 | 0.474 | 0.326 | 0.769 | 0.738 | 0.661 | 0.605 | 0.617
